# Target: T1, human amylin (h-amylin) (Homo sapiens, UniProt P10997)
# T1 construct: gene IAPP; synthetic 37 residue polypeptide with a disulfide bridge connecting Cys-2 and Cys-7 and an amidated C-terminus; measured as amyloid fibrils
# T1 sequence (P10997 34-70): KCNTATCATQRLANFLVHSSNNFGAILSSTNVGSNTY
# Assay: co-sedimentation of BBG with h-amylin amyloid fibrils (supernatant absorbance at […] nm); supported by TEM/AFM of inhibited and remodeled fibrils and loss of thioflavin-T signal
# Format: binding
# From the text: The result is consistent with binding of BBG to h-amylin amyloid fibers
compound,measurement,value
"CCOc1ccc(Nc2ccc(/C(=C3C=C/C(=[N+](/CC)Cc4cccc(S(=O)(=O)[O-])c4)C=C/3C)c3ccc(N(CC)Cc4cccc(S(=O)(=O)O)c4)cc3C)cc2)cc1 [BBG, Sodium;3-[[4-[(E)-[4-(4-ethoxyanilino)phenyl]-[4-[ethyl-[(3-sulfonatophenyl)methyl]azaniumylidene]-2-methylcyclohexa-2,5-dien-1-ylidene]methyl]-N-ethyl-3-methylanilino]methyl]benzenesulfonate]",co-sedimentation of BBG with h-amylin amyloid fibrils (supernatant absorbance at),significant BBG pellets with the fiber. The result is consistent with binding of BBG to h-amylin amyloid fibers

# — article PMC6690547, “The triphenylmethane dye brilliant blue G is only moderately effective at inhibiting amyloid formation by human amylin or at disaggregating amylin amyloid fibrils, but interferes with amyloid assays; Implications for inhibitor design” (PLoS ONE, 2019)
